Measured values from patent US20180256673A1, “METHODS FOR TREATING FUNGAL INFECTIONS” (priority 2015, published 2018).
Where two headings read alike, the source gives them in different places. Starred links: 1 amine or outer side, 2 acyl side, 3 side chain; linkers in the order of their positions; H or OH if unused. Positions of bridges follow the written chain, without caps; N, C: chain ends. Non-standard residues stand in square brackets, D forms with d. Residues, ends and D or L forms follow the SMILES beside them. *: point of attachment. Orn(4R-OH,5R-OCH2CH2NMe3+) = C[N+](C)(C)CCO[C@@H](N[*:3])[C@H](O)C[C@H](N[*:1])C(=O)[*:2]; pTerphenylCO(4''-OnC5H11) = CCCCCOc1ccc(-c2ccc(-c3ccc(C(=O)*)cc3)cc2)cc1; hTyr(3S-OH,4S-OH) = N[C@H](C(=O)O)[C@H](O)[C@@H](O)c1ccc(O)cc1; Pro(3S-OH,4S-Me) = C[C@H]1CN[C@H](C(=O)O)[C@H]1O; Hyp = O=C(O)[C@@H]1C[C@@H](O)CN1

Assays:
[1] = tested on: azole-resistant Candida albicans R357 strain; assay: microbe, parasite or virus in culture; assay type: cell-based; conditions: Candida albicans
C. albicans = assay: Mutant prevention concentration (MPC) determination; assay type: cell-based, Candida albicans; conditions: wild-type isolates; 24 hr, ~1×10^7 CFU/mL
C. glabrata = assay: as above; assay type: cell-based, Candida glabrata; conditions: wild-type isolates; 24 hr, ~1×10^7 CFU/mL
C. krusei ATCC 6258 = assay: microbe, parasite or virus in culture; assay type: cell-based, Candida krusei; conditions: Pichia kudriavzevii
[2] = tested on: C. albicans vaginal isolates; assay: Susceptibility testing of VVC clinical isolates at pH 7 and 4 (CLSI M27-A3); assay type: cell-based, Candida albicans; conditions: for Number of isolates at MIC 0.06 μg/mL / Number of isolates at MIC 0.125 μg/mL / Number of isolates at MIC 0.25 μg/mL / Number of isolates at MIC 0.5 μg/mL / Number of isolates at MIC 0.03 μg/mL / Number of isolates at MIC […] / Number of isolates at MIC 1 μg/mL: 60 VVC isolates; for MIC90 / MIC: Candida albicans
Candida glabrata = assay: microbe, parasite or virus in culture; assay type: cell-based

**Q.** Which results are given for `CCCCCOc1ccc(-c2ccc(-c3ccc(C(=O)N[C@H]4C[C@@H](O)[C@@H](OCC[N+](C)(C)C)NC(=O)[C@@H]5[C@@H](O)[C@@H](C)CN5C(=O)[C@H]([C@@H](C)O)NC(=O)[C@H]([C@H](O)[C@@H](O)c5ccc(O)cc5)NC(=O)[C@@H]5C[C@@H](O)CN5C(=O)[C@H]([C@@H](C)O)NC4=O)cc3)cc2)cc1` [Compound 1] ({pTerphenylCO(4''-OnC5H11)}-[Orn(4R-OH,5R-OCH2CH2NMe3+)]T[Hyp][hTyr(3S-OH,4S-OH)]T[Pro(3S-OH,4S-Me)]; lactam 1-C)?
**A.** MIC [1]: 0.125 µg/mL; MPC (C. albicans): 16 µg/mL; MPC (C. glabrata): 16 µg/mL; MIC (C. krusei ATCC 6258; ATCC6258): 0.125 µg/mL; MIC (C. krusei ATCC 6258; ATCC6258, read-out: MIC P20): 0.125 µg/mL; Number of isolates at MIC 0.06 μg/mL ([2]; 24 h, pH 4): 1; Number of isolates at MIC 0.125 μg/mL ([2]; 24 h, pH 4): 33; Number of isolates at MIC 0.25 μg/mL ([2]; 24 h, pH 4): 23; Number of isolates at MIC 0.5 μg/mL ([2]; 24 h, pH 4): 3; Number of isolates at MIC 0.03 μg/mL ([2]; 24 h, pH 7): 43; Number of isolates at MIC 0.06 μg/mL ([2]; 24 h, pH 7): 10; Number of isolates at MIC 0.125 μg/mL ([2]; 24 h, pH 7): 2; Number of isolates at MIC […] ([2]; 24 h, pH 7): 5; Number of isolates at MIC 0.125 μg/mL ([2]; 48 h, pH 4): 6; Number of isolates at MIC 0.25 μg/mL ([2]; 48 h, pH 4): 16; Number of isolates at MIC 0.5 μg/mL ([2]; 48 h, pH 4): 34; Number of isolates at MIC 1 μg/mL ([2]; 48 h, pH 4): 4; Number of isolates at MIC 0.03 μg/mL ([2]; 48 h, pH 7): 29; Number of isolates at MIC 0.06 μg/mL ([2]; 48 h, pH 7): 16; Number of isolates at MIC 0.125 μg/mL ([2]; 48 h, pH 7): 9; Number of isolates at MIC 0.25 μg/mL ([2]; 48 h, pH 7): 1; Number of isolates at MIC 0.5 μg/mL ([2]; 48 h, pH 7): 1; Number of isolates at MIC 1 μg/mL ([2]; 48 h, pH 7): 2; Number of isolates at MIC […] ([2]; 48 h, pH 7): 2; MIC90 ([2]; 48 h, pH 4): 0.5 µg/mL; MIC ([2]; 48 h, pH 4, fluconazole-resistant isolate 1, pH 4, 48 h, read-out: MIC): 0.5 µg/mL; MIC ([2]; 48 h, pH 4, fluconazole-resistant isolate 2, pH 4): 0.125 µg/mL; MIC ([2]; 48 h, pH 4, fluconazole-resistant isolate 3, pH 4, 48 h, read-out: MIC): 0.5 µg/mL; MIC ([2]; 48 h, pH 4, fluconazole-resistant isolate 4, pH 4, 48 h, read-out: MIC): 0.25 µg/mL; MIC ([2]; 48 h, pH 4, fluconazole-resistant isolate 6, pH 4, 48 h, read-out: MIC): 0.5 µg/mL; MIC ([2]; 48 h, pH 4, fluconazole-resistant isolate 7, pH 4, 48 h, read-out: MIC): 0.5 µg/mL; MIC ([2]; 48 h, pH 4, fluconazole-resistant isolate 9, pH 4, 48 h, read-out: MIC): 1 µg/mL; MIC90 ([2]; 48 h, pH 7): 0.125 µg/mL; MIC ([2]; 48 h, pH 7, fluconazole-resistant isolate 1, pH 7, 48 h, read-out: MIC): 0.03 µg/mL; MIC ([2]; 48 h, pH 7, fluconazole-resistant isolate 2, pH 7): 0.25 µg/mL; MIC ([2]; 48 h, pH 7, fluconazole-resistant isolate 3, pH 7, 48 h, read-out: MIC): 0.03 µg/mL; MIC ([2]; 48 h, pH 7, fluconazole-resistant isolate 4, pH 7, 48 h, read-out: MIC): 0.06 µg/mL; MIC ([2]; 48 h, pH 7, fluconazole-resistant isolate 5, pH 7): 0.125 µg/mL; MIC ([2]; 48 h, pH 7, fluconazole-resistant isolate 6, pH 7, 48 h, read-out: MIC): 0.03 µg/mL; MIC ([2]; 48 h, pH 7, fluconazole-resistant isolate 7, pH 7, 48 h, read-out: MIC): 0.03 µg/mL; MIC ([2]; 48 h, pH 7, fluconazole-resistant isolate 8, pH 7): 0.125 µg/mL; MIC ([2]; 48 h, pH 7, fluconazole-resistant isolate 9, pH 7, 48 h, read-out: MIC): 1 µg/mL; MIC ([2]; 48 h, pH 7, fluconazole-resistant isolate 10, pH 7): 0.125 µg/mL; MIC90 ([2]; 60 isolates, pH 4, 24 h, read-out: MIC90): 0.25 µg/mL; MIC90 ([2]; 60 isolates, pH 7, 24 h, read-out: MIC90): 0.06 µg/mL; Cumulative % of isolates inhibited at MIC 0.015 μg/mL (Candida glabrata): (3.0) %; Cumulative % of isolates inhibited at MIC 0.03 μg/mL (Candida glabrata): (62.0) %; Cumulative % of isolates inhibited at MIC 0.06 μg/mL (Candida glabrata): (91.0) %; Cumulative % of isolates inhibited at MIC 0.25 μg/mL (Candida glabrata): (95.0) %; Cumulative % of isolates inhibited at MIC 0.5 μg/mL (Candida glabrata): (95.0) %; Cumulative % of isolates inhibited at MIC 1 μg/mL (Candida glabrata): (96.0) %; Cumulative % of isolates inhibited at MIC 2 μg/mL (Candida glabrata): (99.0) %; Cumulative % of isolates inhibited at MIC 4 μg/mL (Candida glabrata): (100.0) %; Number of isolates inhibited at MIC 0.015 μg/mL (Candida glabrata): 3; Number of isolates inhibited at MIC 0.03 μg/mL (Candida glabrata): 59
